# In patent US20260076983A1, “CANNABINOIDS COMPOSITIONS WITH POLYUNSATURATED FATTY ACID MONOGLYCERIDES AS A SPECIFIC COX-2 INHIBITOR, METHODS AND USES THEREOF” (SCF PHARMA INC., priority 2022, published 2026):
# Biological target: T1, COX-2 enzyme (Homo sapiens, UniProt P35354)
# T1 construct: PGE2 levels in lipopolysaccharide (LPS)-challenged human whole blood; from tissue; host or cells: human whole blood (heparin tube) from one volunteer, LPS-challenged ex vivo
# T1 sequence (P35354 18-604): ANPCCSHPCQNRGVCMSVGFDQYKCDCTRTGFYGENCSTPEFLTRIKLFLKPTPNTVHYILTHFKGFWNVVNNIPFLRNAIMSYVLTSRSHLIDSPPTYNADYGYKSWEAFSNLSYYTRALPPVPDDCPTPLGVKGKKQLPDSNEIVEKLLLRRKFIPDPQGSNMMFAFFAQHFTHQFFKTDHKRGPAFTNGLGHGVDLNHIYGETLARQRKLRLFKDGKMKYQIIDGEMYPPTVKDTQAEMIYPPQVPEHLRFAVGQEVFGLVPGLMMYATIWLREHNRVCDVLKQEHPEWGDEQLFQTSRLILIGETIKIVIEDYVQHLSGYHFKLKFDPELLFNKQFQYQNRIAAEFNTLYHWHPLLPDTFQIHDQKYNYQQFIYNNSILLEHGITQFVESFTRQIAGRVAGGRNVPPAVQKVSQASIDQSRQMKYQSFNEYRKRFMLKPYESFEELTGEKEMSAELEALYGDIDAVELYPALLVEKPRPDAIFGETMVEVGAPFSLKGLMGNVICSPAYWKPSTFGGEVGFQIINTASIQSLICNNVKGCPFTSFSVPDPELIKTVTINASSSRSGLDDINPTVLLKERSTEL
# Experiment: PGE2 levels in LPS-challenged human whole blood after oral capsules (human case study)
# Format: in vivo
# Settings: cross-over, blood 3.5 h after dosing
# Description: 200 mg of cannabidiol (CBD) dissolved in 2.0 g of MCT oil, 2.0 g of compound of formula (IV) alone and 200 mg of cannabidiol (CBD) dissolved in 2.0 g of compound of formula (IV) were separately encapsulated in four (4) hard gel capsules (size 00) for a cross over COX-2 case study. A pilot cross-over case study was conducted in one volunteer over a three (3) week periods with one experiment per week. In the morning of the experiment, 10 ml of blood was collected in heparin tube from the volunteer fasted for 10 h. The four (4) hard gel capsules were swallowed with a glass of water and blood collection was repeated after 3.5 h. PGE2 levels in lipopolysaccharide (LPS)-challenged human whole blood was measured as biochemical index for cyclooxygenase COX-2 activity (Brideau C, Kargman S, Liu S, Dallob A L, Ehrich E W, Rodger I W, Chan C C. A human whole blood assay for clinical evaluation of biochemical efficacy of cyclooxygenase inhibitors. Inflamm Res. 1996 February; 45(2):68-74. doi: 10.1007/BF02265118. PMID: 8907587).
# 100 mg of cannabidiol (CBD) dissolved in 2.0 g of compound of formula (IV) was encapsulated in four (4) hard gel capsules (size 00) for COX-1 and COX-2 case study. A pilot case study was conducted in one volunteer. In the morning of the case study, 20 ml of blood was collected (1×10 ml serum tube and 1×10 ml heparin tube) from the volunteer fasted for 10 h. […]
smiles,measurement,setting,value
CC/C=C\C/C=C\C/C=C\C/C=C\C/C=C\CCCC(=O)OCC(O)CO (centres unmarked) [compound of formula (IV)],inhibition of the COX-2 enzyme,"Example 1, one volunteer, oral hard gel capsules, 200 mg CBD in 2.0 g MCT oil, 2.0 g compound of formula (IV) alone, 200 mg CBD in 2.0 g compound of formula (IV)",10%
same,inhibition of the COX-2 enzyme (in words),"Example 3, one volunteer, 2.0 g compound of formula (IV), oral capsules",mild inhibition
